What all share (format): functional
The test system of experiment [1] is Rattus norvegicus. The experiment is described as follows: Antiinflammatory activity in Wistar albino rat assessed as carrageenan-induced paw edema at 50 mg/kg, po administered 30 mins prior to carrageenan-challenge measured after 3 hrs relative to control. The conditions noted are these: read-out: INH.
Experiment [2] concerns Rattus norvegicus. In words: Antiinflammatory activity in Wistar albino rat assessed as carrageenan-induced paw edema at 50 mg/kg, po administered 30 mins prior to carrageenan-challenge measured after 2 hrs relative to control.
The subject of experiment [3] is Rattus norvegicus. The experiment is described as follows: Antiinflammatory activity in Wistar albino rat assessed as carrageenan-induced paw edema at 50 mg/kg, po administered 30 mins prior to carrageenan-challenge measured after 1 hr relative to control.
For experiment [4], the system named is Rattus norvegicus. The experiment is described as follows: Antiinflammatory activity in Wistar albino rat assessed as carrageenan-induced paw edema at 50 mg/kg, ip administered 30 mins prior to carrageenan-challenge measured after 2 hrs relative to control. The conditions noted are these: route intraperitoneal.
The subject of experiment [5] is Rattus norvegicus. The experiment is described as follows: Antiinflammatory activity in Wistar albino rat assessed as carrageenan-induced paw edema at 50 mg/kg, ip administered 30 mins prior to carrageenan-challenge measured after 1 hr relative to control. The conditions noted are these: route intraperitoneal.
Experiment [6] deals with Rattus norvegicus. In words: Antiinflammatory activity in Wistar albino rat assessed as carrageenan-induced paw edema at 50 mg/kg, ip administered 30 mins prior to carrageenan-challenge measured after 3 hrs relative to control. The following applies: route intraperitoneal.

On to `O=C(c1ccc([N+](=O)[O-])cc1)C(NNc1ccc(F)cc1)C(=O)C(F)(F)F` (stereo not drawn), for which the inhibition in vivo at 50 mg/kg in the experiment on Rattus norvegicus [1] amounted to 18.2%; with Rattus norvegicus [2], 8.86%; in the experiment with Rattus norvegicus [3], 5.05%.

As for `O=C(c1ccc(Br)cc1)C(NNc1ccc(F)cc1)C(=O)C(F)(F)F` (stereo not drawn), the inhibition in vivo at 50 mg/kg with Rattus norvegicus [1] amounted to 43.2%; with Rattus norvegicus [2], 30.4%; with Rattus norvegicus [3] it was 17.3%.

With `O=C(c1cccs1)C(NNc1ccc(F)cc1)C(=O)C(F)(F)F` (stereo not drawn), the inhibition in vivo at 50 mg/kg in the experiment with Rattus norvegicus [1] amounted to 17.4%; with Rattus norvegicus [2], 7.93%; in the experiment on Rattus norvegicus [3], 4.11%.

Take `O=C(O)Cc1ccccc1Nc1c(Cl)cccc1Cl` [DICLOFENAC SODIUM]: the figures for the inhibition in vivo at 50 mg/kg with Rattus norvegicus [4], with Rattus norvegicus [5] and in the experiment on Rattus norvegicus [6] were 30.4%, 20.1% and 46.8%, respectively.

Regarding `COc1ccc(C(=O)C(NNc2ccc(F)cc2)C(=O)C(F)(F)F)cc1` (stereo not drawn), the inhibition in vivo at 50 mg/kg with Rattus norvegicus [1] was 40.6%; in the experiment with Rattus norvegicus [2], 26.6%; in the experiment on Rattus norvegicus [3] it was 15.4%.

As for `O=C(c1ccc(F)cc1)C(NNc1ccc(F)cc1)C(=O)C(F)(F)F` (stereo not drawn), the inhibition in vivo at 50 mg/kg in the experiment on Rattus norvegicus [1] was found to be 42.4%; in the experiment on Rattus norvegicus [2] it was 28.5%; with Rattus norvegicus [3], 18.3%.

Source of the values: ChEMBL document CHEMBL3046286, “4-Fluorophenylhydrazones as potential COX-2 inhibitors: a novel, efficient, one pot solid phase synthesis, docking study and pharmacological evaluation” (2013).
